PMC6277767, “Broad and Region-Specific Impacts of the Synthetic Cannabinoid CP 55,940 in Adolescent and Adult Female Mouse Brains” (Frontiers in Molecular Neuroscience, 2018)

Tested on: CD1 female mouse brain lipidome
Experiment: Brain-region lipid levels (HPLC/MS/MS lipidomics) 2 h after single i.p. 3 mg/kg CP 55,940 vs vehicle
Format: in vivo
Set-up: N-arachidonoyl phenylalanine level, Mean / N-stearoyl tryptophan level, Mean / N-stearoyl proline level, Mean / N-stearoyl leucine level, Mean / N-stearoyl phenylalanine level, Mean / N-stearoyl serine level, Mean / N-stearoyl methionine level, Mean: unit: moles per gram
Settings: striatum
Description: The Bloomington Institutional Animal Care and Use Committee of Indiana University reviewed and approved the animal procedures. Female mice from the CD1 strain were utilized to match our study examining THC’s effects on the brain lipidome ([Leishman et al., 2018]). Mice were given a single i.p. injection of either 3 mg/kg CP or 1:1:18 cremophor:ethanol:saline vehicle (please refer to the section “3 mg/kg CP Is Relevant for Synthetic Cannabinoid Abuse and Has Stronger Effects on the Female Mouse Brain Lipidome During Adolescence” for a justification of dose and use of female mice). Three different age groups were given injections: PND 35 and PND 50 adolescents, and adult mice (PND 113). At least eight mice in each age group received CP and at least eight received vehicle. Matching the THC study time course ([Leishman et al., 2018]), mice were sacrificed via rapid decapitation 2 h after injection. Brains were immediately removed and flash-frozen in liquid nitrogen, and then stored at -80°C until dissections were performed. Brains were dissected on an ice-cold dissection plate into the following regions: STR, HIPP, CER, THAL, CTX, HYP, MID, and STEM. These abbreviations for these brain areas will be used exclusively when discussing the results generated by these specific dissections. Each dissected area was immediately placed in liquid nitrogen and then stored at -80°C until used for lipid extraction.
Tissue extracts were performed as previously described ([Bradshaw et al., 2006]; [Stuart et al., 2013]; [Raboune et al., 2014]; [Leishman et al., 2016a],[b], [2017], [2018]). First, samples were shock frozen in liquid nitrogen, weighed, and transferred to a centrifuge tube. The mass of the largest sample was multiplied by 50 to determine how many milliliters of HPLC-grade methanol (Fisher, Fair Lawn, NJ, United States) to add. Then, samples were spiked with 500 pmol deuterium-labeled NAGly (d8NAGly; Cayman Chemical, Ann Arbor, MI, United States). Samples were placed on ice in darkness for 2 h then individually homogenized and centrifuged at 19,000 × g for 20 min at 20°C. Supernatants were diluted with HPLC water (purified in house) to make a solution of 75% water, 25% supernatant. Lipids were partially purified on C18 solid phase extraction columns (Agilent, Palo Alto, CA, United States). A series of four elutions with 1.5 mL of 60%, 75%, 85%, and 100% methanol were collected ([Stuart et al., 2013]; [Leishman et al., 2016a],[b], [2018]).
As previously described ([Bradshaw et al., 2006]; [Tan et al., 2006]; [Smoum et al., 2010]; [Stuart et al., 2013]; [Tortoriello et al., 2013]; [Raboune et al., 2014]; [Leishman et al., 2016a],[b], [2017], [2018]), samples were analyzed using an Applied Biosystems API 3000 triple quadrupole mass spectrometer with electrospray ionization (Foster City, CA, United States). Using an Agilent XDB-C18 reversed phase analytical column and optimized mobile phase gradients, 20 μL from each elution were chromatographed. Two Shimadzu 10ADvp pumps (Columbia, MD, United States) provided the pressure for gradient elution. Mobile phase A: 20% methanol, 80% water (v/v) and 1 mM ammonium acetate (Sigma, St. Louis, MO, United States). Mobile phase B: 100% methanol, 1 mM ammonium acetate. Every method run began with 0% mobile phase B, reached 100% mobile phase B flowing at 0.2 mL/min, and gradually returned to 0% mobile phase B.
This screening library will be referred to as the lipidome when discussing data from this study. HPLC/MS/MS data were analyzed using Analyst software (Applied Biosystems) ([Bradshaw et al., 2006]; [Tan et al., 2006]; [Stuart et al., 2013]; [Tortoriello et al., 2013]; [Raboune et al., 2014]; [Leishman et al., 2016a],[b], [2017], [2018]). Chromatograms (Supplementary Figure 3) were generated by determining the retention time of analytes from the analytical column with a [M-1] or [M+1] parent peak and a fragmentation peak corresponding to the programmed values. […]

[1] = PND 50 female mice, 3mg/kg CP 55,940, mean

Compound: CCCCCCC(C)(C)c1ccc([C@@H]2C[C@H](O)CC[C@H]2CCCO)c(O)c1 [CP 55,940]
- N-palmitoyl valine level [1]: 1.79E-13
- N-stearoyl GABA level [1]: 3.86E-12
- N-stearoyl alanine level [1]: 6.45E-13
- N-stearoyl ethanolamine level [1]: 2.79E-11
- N-stearoyl glycine level [1]: 4.91E-13
- N-stearoyl leucine level [1]: 1.1E-12
- N-stearoyl methionine level [1]: 8.01E-13
- N-stearoyl phenylalanine level [1]: 1.27E-12
- N-stearoyl proline level [1]: BDL
- N-stearoyl serine level [1]: 5.13E-11
- N-stearoyl tryptophan level [1]: BDL
- N-stearoyl tyrosine level [1]: 9.9E-14
- Oleic acid level [1]: 2.17E-10
- PGE2 level [1]: 7.65E-11
- PGF2α level [1]: 9.33E-11
- THC level [1]: BDL
- 2-arachidonoyl-sn-glycerol level, Mean (adult, 3 mg/kg CP 55,940): 1.6E-09
- 2-linoleoyl-sn-glycerol level, Mean (adult, 3 mg/kg CP 55,940): 1.72E-10
- 2-oleoyl-sn-glycerol level, Mean (adult, 3 mg/kg CP 55,940): 1.58E-09
- 2-palmitoyl-sn-glycerol level, Mean (adult, 3 mg/kg CP 55,940): 1.51E-10
- 6-ketoPGF1α level, Mean (adult, 3 mg/kg CP 55,940): PISSR
- 11-OH-THC level, Mean (adult, 3 mg/kg CP 55,940): BDL
- 11-nor-9-carboxyTHC level, Mean (adult, 3 mg/kg CP 55,940): BDL
- Arachidonic acid level, Mean (adult, 3 mg/kg CP 55,940): 1.93E-09
- Cannabidiol level, Mean (adult, 3 mg/kg CP 55,940): BDL
- Linoleic acid level, Mean (adult, 3 mg/kg CP 55,940): 7.69E-10
- N- stearoyl valine level, Mean (adult, 3 mg/kg CP 55,940): PISSR
- N-arachidonoyl GABA level, Mean (adult, 3 mg/kg CP 55,940): 2.43E-11
- N-arachidonoyl alanine level, Mean (adult, 3 mg/kg CP 55,940): 2.03E-12
- N-arachidonoyl dopamine level, Mean (adult, 3 mg/kg CP 55,940): BDL
- N-arachidonoyl ethanolamine level, Mean (adult, 3 mg/kg CP 55,940): 2.19E-11
- N-arachidonoyl glycine level, Mean (adult, 3 mg/kg CP 55,940): 6.38E-13
- N-arachidonoyl methionine level, Mean (adult, 3 mg/kg CP 55,940): BDL
- N-arachidonoyl phenylalanine level, Mean (adult, 3 mg/kg CP 55,940): 9.64E-14
- N-arachidonoyl proline level, Mean (adult, 3 mg/kg CP 55,940): BDL
- N-arachidonoyl serine level, Mean (adult, 3 mg/kg CP 55,940): PISSR
- N-arachidonoyl taurine level, Mean (adult, 3 mg/kg CP 55,940): 9.74E-11
- N-arachidonoyl tryptophan level, Mean (adult, 3 mg/kg CP 55,940): BDL
- N-arachidonoyl tyrosine level, Mean (adult, 3 mg/kg CP 55,940): PISSR
- N-docosahexaenoyl GABA level, Mean (adult, 3 mg/kg CP 55,940): PISSR
- N-docosahexaenoyl alanine level, Mean (adult, 3 mg/kg CP 55,940): BDL
- N-docosahexaenoyl ethanolamine level, Mean (adult, 3 mg/kg CP 55,940): 2.36E-11
- N-docosahexaenoyl glycine level, Mean (adult, 3 mg/kg CP 55,940): PISSR
- N-docosahexaenoyl leucine level, Mean (adult, 3 mg/kg CP 55,940): PISSR
- N-docosahexaenoyl methionine level, Mean (adult, 3 mg/kg CP 55,940): BDL
- N-docosahexaenoyl phenylalanine level, Mean (adult, 3 mg/kg CP 55,940): PISSR
- N-docosahexaenoyl proline level, Mean (adult, 3 mg/kg CP 55,940): BDL
- N-docosahexaenoyl serine level, Mean (adult, 3 mg/kg CP 55,940): PISSR
- N-docosahexaenoyl tryptophan level, Mean (adult, 3 mg/kg CP 55,940): BDL
- N-docosahexaenoyl tyrosine level, Mean (adult, 3 mg/kg CP 55,940): PISSR
- N-docosahexaenoyl valine level, Mean (adult, 3 mg/kg CP 55,940): BDL
- N-linoleoyl GABA level, Mean (adult, 3 mg/kg CP 55,940): PISSR
- N-linoleoyl alanine level, Mean (adult, 3 mg/kg CP 55,940): PISSR
- N-linoleoyl ethanolamine level, Mean (adult, 3 mg/kg CP 55,940): 3.83E-11
- N-linoleoyl glycine level, Mean (adult, 3 mg/kg CP 55,940): PISSR
- N-linoleoyl leucine level, Mean (adult, 3 mg/kg CP 55,940): PISSR
- N-linoleoyl methionine level, Mean (adult, 3 mg/kg CP 55,940): BDL
- N-linoleoyl phenylalanine level, Mean (adult, 3 mg/kg CP 55,940): PISSR
- N-linoleoyl proline level, Mean (adult, 3 mg/kg CP 55,940): BDL
- N-linoleoyl serine level, Mean (adult, 3 mg/kg CP 55,940): 1.09E-10
- N-linoleoyl tryptophan level, Mean (adult, 3 mg/kg CP 55,940): BDL
- N-linoleoyl tyrosine level, Mean (adult, 3 mg/kg CP 55,940): BDL
- N-linoleoyl valine level, Mean (adult, 3 mg/kg CP 55,940): PISSR
- N-nervonoyl valine level, Mean (adult, 3 mg/kg CP 55,940): BDL
- N-oleoyl GABA level, Mean (adult, 3 mg/kg CP 55,940): 1.7E-11
- N-oleoyl alanine level, Mean (adult, 3 mg/kg CP 55,940): 3.96E-12
- N-oleoyl dopamine level, Mean (adult, 3 mg/kg CP 55,940): BDL
- N-oleoyl ethanolamine level, Mean (adult, 3 mg/kg CP 55,940): 1.57E-10
- N-oleoyl glycine level, Mean (adult, 3 mg/kg CP 55,940): 5.26E-13
- N-oleoyl leucine level, Mean (adult, 3 mg/kg CP 55,940): 1.99E-12
- N-oleoyl methionine level, Mean (adult, 3 mg/kg CP 55,940): PISSR
- N-oleoyl phenylalanine level, Mean (adult, 3 mg/kg CP 55,940): 4.84E-13
- N-oleoyl proline level, Mean (adult, 3 mg/kg CP 55,940): BDL
- N-oleoyl serine level, Mean (adult, 3 mg/kg CP 55,940): 5.05E-10
- N-oleoyl tryptophan level, Mean (adult, 3 mg/kg CP 55,940): BDL
- N-oleoyl tyrosine level, Mean (adult, 3 mg/kg CP 55,940): PISSR
- N-oleoyl valine level, Mean (adult, 3 mg/kg CP 55,940): PISSR
- N-palmitoyl GABA level, Mean (adult, 3 mg/kg CP 55,940): 2.94E-11
- N-palmitoyl alanine level, Mean (adult, 3 mg/kg CP 55,940): 3.83E-12
- N-palmitoyl ethanolamine level, Mean (adult, 3 mg/kg CP 55,940): 7.87E-11
- N-palmitoyl glycine level, Mean (adult, 3 mg/kg CP 55,940): 2.5E-12
- N-palmitoyl leucine level, Mean (adult, 3 mg/kg CP 55,940): 3E-12
- N-palmitoyl methionine level, Mean (adult, 3 mg/kg CP 55,940): PISSR
- N-palmitoyl phenylalanine level, Mean (adult, 3 mg/kg CP 55,940): 3.31E-13
- N-palmitoyl proline level, Mean (adult, 3 mg/kg CP 55,940): PISSR
- N-palmitoyl serine level, Mean (adult, 3 mg/kg CP 55,940): 4.99E-11
- N-palmitoyl tryptophan level, Mean (adult, 3 mg/kg CP 55,940): BDL
- N-palmitoyl tyrosine level, Mean (adult, 3 mg/kg CP 55,940): 2.47E-12
- N-palmitoyl valine level, Mean (adult, 3 mg/kg CP 55,940): PISSR
- N-stearoyl GABA level, Mean (adult, 3 mg/kg CP 55,940): 2.26E-11
- N-stearoyl alanine level, Mean (adult, 3 mg/kg CP 55,940): 4.15E-12
- N-stearoyl ethanolamine level, Mean (adult, 3 mg/kg CP 55,940): 3.49E-11
- N-stearoyl glycine level, Mean (adult, 3 mg/kg CP 55,940): 3.37E-12
- N-stearoyl leucine level, Mean (adult, 3 mg/kg CP 55,940): 3.52E-12
- N-stearoyl phenylalanine level, Mean (adult, 3 mg/kg CP 55,940): 4.25E-13
- N-stearoyl proline level, Mean (adult, 3 mg/kg CP 55,940): BDL
- N-stearoyl serine level, Mean (adult, 3 mg/kg CP 55,940): PISSR
- N-stearoyl tryptophan level, Mean (adult, 3 mg/kg CP 55,940): BDL
- Oleic acid level, Mean (adult, 3 mg/kg CP 55,940): 1.22E-09
- PGE2 level, Mean (adult, 3 mg/kg CP 55,940): 2.64E-10
- PhosphoLEA level, Mean (adult, 3 mg/kg CP 55,940): 2.11E-11
- THC level, Mean (adult, 3 mg/kg CP 55,940): BDL
